Read-outs that look alike come from different tables or passages of the source. Residues, ends and D or L forms follow the SMILES beside them. *: point of attachment. Biotin = O=C1N[C@H]2[C@H](CS[C@H]2CCCCC(=O)*)N1
How the values were obtained:
[1] = system: NeuN+ neurons and GFAP+ astrocytes of mixed cortical cultures; test: Peptide visualization in primary cultures (Fluorescein Avidin D); format: cell-based, rat; conditions: peptide 25 µM, 30 min; Fluorescein Avidin D with NeuN and GFAP double staining (Fig 1C)
[2] = system: primary cortical cultures; conditions: 25 µM
[3] = system: neurons of primary cortical cultures; test: Neuronal viability (MTT) under NMDA excitotoxicity; format: cell-based, rat
Protocol: Cultures were prepared from cerebral cortex of 18-day-old Wistar rat embryos, both genders indistinctly included. Unless otherwise indicated, glial growth was inhibited after 7 days in vitro (DIVs), experimental treatments taking place after 12 DIVs. These cultures present a high percentage of neurons, combined with glial cells, mostly astrocytes. To induce excitotoxicity, cultures were incubated with NMDA (100 µM) and its co-agonist glycine (10 µM), herein denoted simply as NMDA, which induce a strong excitotoxic response in mature neurons but have no effect on astrocyte viability,[47]. When indicated, cultures were preincubated for 30 min with indicated concentrations of Tat-derived CPPs before NMDA treatment, peptides being kept in the medium along treatment. Total cell or neuronal viability assessment was established by the thiazolyl blue formazan (MTT) reduction assay. Further details are provided as Supplementary material. […]
skull for 10 min. Br ain injury encompas se s damage to vas cular endothelium, platelet activation, and subs equent microvascula r thrombotic occlus ion of the irradiate d region. The ar eas underneath this ste reotaxic position that result irradiate d ar e the prima ry motor cortex and the prima ry soma tos ens ory cortex (hindlimb and forelimb). Once completed surgery, the incision was sutured, and mice were allowed to recover.
For neuroprote ction experiments, a single dose (3 nmol/g) of peptides TMyc or TT1Ct (> 95% purity; GenScript), solubilized as 2.5 mM solutions in 0.9% NaC l, we retro-orbita lly injected 1 h af ter damage initiation. In order to improve their plas ma sta bility, thes e peptides ar e N- and C-ter modifie d by, respec tive ly, ace tyl and amide groups. Mi c e were not subje cted to other procedures before isc hemia and were naive to drug or peptide treatment. Animals were randomly allocated to the experimental groups and the resea rc hers doing the experiments were blind respec t to treatment. There was not a previous es tima tion of sa mple si z e and experiments were independently car r ied out as indicated. Twenty-four hours af ter damage induction, animals completed the beam walking test and were subs equently sa cri f i ced by cervical disloca tion to meas ure the infarc t volume, as indicated below. Be fore that, brains were se ctioned into se ri al 1-mm-thick coronal sl i ce s using a mouse brain matrix (Stoe lting, Wood Dale, IL, USA), and se ctions were completely sta ine d with 2% TTC at room temperature to visua liz e the cortical infarc ts . For immunohistochemis try, animals were deeply anes thetized 5 or 24 h af ter brain damage and intra cardially perfus ed with cold PBS and 4% paraformalde hyde in PBS as indicated below.
Primary cultures of rat cor tic al neurons to study in vitro excitotoxicity The diss ected cerebral cortices of Wis ta r rat embryos (E18), both genders included, were mechanic ally diss ociated in culture medium (Minimum Esse ntia l Me dium, ME M, Life Technologies) follow ed by se eding of the cell sus pens ion at a dens ity of 1.1x10^6 cells /ml, prepared in the sa m e medium supple me nted with 22.2 mM glucos e, 0.1 mM glutamax, 5% foetal bovine se rum (FBS), 5% donor horse se rum (HS), 100 U/ml penicillin and 100 µg/ml streptomycin. Be fore se eding, the plates were treated overnight at 37°C with 100 µg/ml poly-L-lysine and 4 µg/ml laminin. The cells were incubated at 37°C in an atmosphe re of 5% CO2 and 95% humidity. Generally, glial growth was inhibited af ter 7 days in vitro (DIV s) by adding 10 µM 5 cytos ine β-D-arabinofuranos ide (AraC) and experimental treatments took place af ter 12 DIVs. Excitotoxicity was induced by incubation with NM DA (100 µM) and glycine (10 µM) for the indicated times. As indicated, cultures were preincubated with Tat-derived CP P s before […]
Mi c e had to walk through a narrow beam (1 m × 1 cm × 1 cm) placed 50 cm above the tabletop, going from an aversive stimulus (60-W light bulb) to a black goal box with nes ting material. […]

[4] = peptide 25 µM preincubated 30 min, NMDA 100 µM + glycine 10 µM for 2 h, relative to untreated cells (100%), mean ± SEM, n = 8 (Fig 1E)
[5] = peptide 25 µM preincubated 30 min, NMDA 100 µM + glycine 10 µM for 4 h, relative to untreated cells (100%), mean ± SEM, n = 8 (Fig 1E)

Compound	Peptide entry into neurons and astrocytes [1]	Relative cell viability (%) ([2]; 4 h)	Relative cell viability (%) ([2]; 6 h)	Relative cell viability (%) ([2]; 24 h)	Relative neuronal viability (%) [3, 4] [%]	Relative neuronal viability (%) [3, 5] [%]	Relative neuronal viability (%) ([3]; 2 h, 15 µM)	Relative neuronal viability (%) ([3]; 4 h, 15 µM)	Neuronal viability ([3]; CPPs 0: peptide and NMDA (100 µM) at the same time, viability after 4 h of excitotoxicity, relative to untreated cells (100%), mean, n = 4-8 (Fig S4)) [%]	Neuronal viability ([3]; CPPs 30: peptide added 30' post-NMDA (100 µM), viability after 4 h of excitotoxicity, relative to untreated cells (100%), mean, n = 4-8 (Fig S4)) [%]	Neuronal viability ([3]; CPPs 60: peptide added 60' post-NMDA (100 µM), viability after 4 h of excitotoxicity, relative to untreated cells (100%), mean, n = 4-8 (Fig S4)) [%]	Neuronal viability ([3]; dose-response experiment (Fig 3B): peptide 15 µM preincubated 30 min, NMDA 2 h, mean ± SEM, n = 8) [%]
CC[C@H](C)[C@H](NC(=O)[C@H](CC(C)C)NC(=O)[C@H](CCCCN)NC(=O)[C@H](CCC(N)=O)NC(=O)[C@H](CCC(=O)O)NC(=O)[C@H](CCC(=O)O)NC(=O)[C@H](C)NC(=O)[C@H](CCCNC(=N)N)NC(=O)[C@H](CCCNC(=N)N)NC(=O)[C@H](CCCNC(=N)N)NC(=O)[C@H](CCC(N)=O)NC(=O)[C@H](CCCNC(=N)N)NC(=O)[C@H](CCCNC(=N)N)NC(=O)[C@H](CCCCN)NC(=O)[C@H](CCCCN)NC(=O)[C@H](CCCNC(=N)N)NC(=O)CNC(=O)[C@H](Cc1ccc(O)cc1)NC(=O)CCCC[C@@H]1SC[C@@H]2NC(=O)N[C@@H]21)C(=O)N[C@@H](CO)C(=O)N[C@@H](CCC(=O)O)C(=O)N[C@@H](CCC(=O)O)C(=O)N[C@@H](CC(=O)O)C(=O)N[C@@H](CC(C)C)C(=O)N[C@@H](CC(C)C)C(=O)N[C@@H](CCCNC(=N)N)C(N)=O [Bio-TMyc, reference compound] (Biotin-YGRKKRRQRRRAEEQKLISEEDLLR-NH2)	found inside both NeuN+ (arrowheads) and GFAP+ (asterisks) cells	100	97	97	24 ± 3	16 ± 3						
CC[C@H](C)[C@H](NC(=O)[C@H](CCCCN)NC(=O)[C@H](Cc1c[nH]cn1)NC(=O)[C@H](Cc1ccccc1)NC(=O)[C@H](CC(C)C)NC(=O)[C@@H](NC(=O)[C@H](Cc1ccccc1)NC(=O)[C@H](CCCNC(=N)N)NC(=O)[C@H](CCCNC(=N)N)NC(=O)[C@H](CCCNC(=N)N)NC(=O)[C@H](CCC(N)=O)NC(=O)[C@H](CCCNC(=N)N)NC(=O)[C@H](CCCNC(=N)N)NC(=O)[C@H](CCCCN)NC(=O)[C@H](CCCCN)NC(=O)[C@H](CCCNC(=N)N)NC(=O)CNC(=O)[C@H](Cc1ccc(O)cc1)NC(=O)CCCC[C@@H]1SC[C@@H]2NC(=O)N[C@@H]21)C(C)C)C(=O)N1CCC[C@H]1C(=O)N[C@@H](CC(C)C)C(=O)N[C@@H](CC(=O)O)C(=O)NCC(N)=O [Bio-sTT1Ct] (Biotin-YGRKKRRQRRRFVLFHKIPLDG-NH2)	found inside both NeuN+ (arrowheads) and GFAP+ (asterisks) cells		99	103	50 ± 5	32 ± 3	45	39				
Ac-YGRKKRRQRRRPPFVLFHKIPLDG-NH2 [TT1Ct]									59	31	37	46 ± 7

From PMC11984388, “A brain-accessible peptide modulates stroke inflammatory response and neurotoxicity by targeting BDNF-receptor TrkB-T1 specific interactome” (Theranostics, 2025)
